{"source": "patent US20100010219A1", "about": "“METHOD FOR PRODUCING PYRROLIDINE COMPOUND” (JAPAN TOBACCO INC., priority 2006, published 2010)", "molecular_target": "T1, human HSD-1 (recombinant HSD-1) (Homo sapiens, UniProt P28845)", "T1 construct": "made in house", "T1 sequence (P28845 whole entry)": "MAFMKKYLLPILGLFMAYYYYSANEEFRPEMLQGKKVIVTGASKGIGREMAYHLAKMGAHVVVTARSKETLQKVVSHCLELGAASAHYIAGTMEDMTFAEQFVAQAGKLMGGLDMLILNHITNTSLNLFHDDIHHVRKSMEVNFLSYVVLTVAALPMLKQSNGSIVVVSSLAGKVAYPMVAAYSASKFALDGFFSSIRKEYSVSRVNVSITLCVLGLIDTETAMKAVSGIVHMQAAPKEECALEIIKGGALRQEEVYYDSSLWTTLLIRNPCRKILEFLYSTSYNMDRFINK", "assay": "HSD-1 activity inhibitory action in vitro (SPA, conversion of cortisone to cortisol)", "assay_type": "biochemical", "settings": "recombinant human HSD-1 expressed using baculovirus system; 10 nM 3H cortisone, 500 μM NADPH; room temperature 90 to 120 min; read-out: hHSD1 (IC50 (nM))", "note": "Where a name gives a salt, the structure may show the parent alone."}
{"smiles": "O=C(c1cnn(C2CCN(C(=O)N3CC(CO)C3)CC2)c1C1CC1)N1CC[C@@H](c2ccccc2C(F)(F)F)C1", "note": "[Example 28, 1-{5-cyclopropyl-1-[1-(3-hydroxymethylazetidine-1-carbonyl)piperidin-4-yl]-1H-pyrazole-4-carbonyl}-[(S)-3-(2-trifluoromethylphenyl)]pyrrolidine]", "values": [{"measurement": "IC50", "value": "< 30", "unit": "nM"}]}
{"smiles": "CN1CCN(C(=O)N2CCC(n3ncc(C(=O)N4CC[C@@H](c5ccccc5C(F)(F)F)C4)c3C3CC3)CC2)CC1", "note": "[Example 29, 1-{5-cyclopropyl-1-[1-(4-methylpiperazine-1-carbonyl)piperidin-4-yl]-1H-pyrazole-4-carbonyl}-[(S)-3-(2-trifluoromethylphenyl)]pyrrolidine hydrochloride]", "values": [{"measurement": "IC50", "value": "< 30", "unit": "nM"}]}
{"smiles": "CC(C)N1CCN(C(=O)N2CCC(n3ncc(C(=O)N4CC[C@@H](c5ccccc5C(F)(F)F)C4)c3C3CC3)CC2)CC1", "note": "[Example 30, 1-{5-cyclopropyl-1-[1-(4-isopropylpiperazine-1-carbonyl)piperidin-4-yl]-1H-pyrazole-4-carbonyl}-[(S)-3-(2-trifluoromethylphenyl)]pyrrolidine hydrochloride]", "values": [{"measurement": "IC50", "value": "< 30", "unit": "nM"}]}
{"smiles": "CC(=O)N1CCN(C(=O)N2CCC(n3ncc(C(=O)N4CC[C@@H](c5ccccc5C(F)(F)F)C4)c3C3CC3)CC2)CC1", "note": "[Example 31, 1-{1-[1-(4-acetylpiperazine-1-carbonyl)piperidin-4-yl]-5-cyclopropyl-1H-pyrazole-4-carbonyl}-[(S)-3-(2-trifluoromethylphenyl)]pyrrolidine]", "values": [{"measurement": "IC50", "value": "< 30", "unit": "nM"}]}
{"smiles": "O=C(c1cnn(C2CCN(C(=O)N3CCC[C@@H](O)C3)CC2)c1C1CC1)N1CC[C@@H](c2ccccc2C(F)(F)F)C1", "note": "[Example 32, 1-(5-cyclopropyl-1-{1-[(R)-3-hydroxypiperidine-1-carbonyl]piperidin-4-yl}-1H-pyrazole-4-carbonyl)-[(S)-3-(2-trifluoromethylphenyl)]pyrrolidine]", "values": [{"measurement": "IC50", "value": "< 30", "unit": "nM"}]}
{"smiles": "NC(=O)C1CCN(C(=O)N2CCC(n3ncc(C(=O)N4CC[C@@H](c5ccccc5C(F)(F)F)C4)c3C3CC3)CC2)CC1", "note": "[Example 33, 1-{1-[1-(4-carbamoylpiperidine-1-carbonyl)piperidin-4-yl]-5-cyclopropyl-1H-pyrazole-4-carbonyl}-[(S)-3-(2-trifluoromethylphenyl)]pyrrolidine]", "values": [{"measurement": "IC50", "value": "< 30", "unit": "nM"}]}
{"smiles": "NC(=O)C1CN(C(=O)N2CCC(n3ncc(C(=O)N4CC[C@@H](c5ccccc5C(F)(F)F)C4)c3C3CC3)CC2)C1", "note": "[Example 34, 1-{1-[1-(3-carbamoylazetidine-1-carbonyl)piperidin-4-yl]-5-cyclopropyl-1H-pyrazole-4-carbonyl}-[(S)-3-(2-trifluoromethylphenyl)]pyrrolidine]", "values": [{"measurement": "IC50", "value": "< 30", "unit": "nM"}]}
{"smiles": "NC1CCN(C(=O)N2CCC(n3ncc(C(=O)N4CC[C@@H](c5ccccc5C(F)(F)F)C4)c3C3CC3)CC2)CC1", "note": "[Example 35, 1-{1-[1-(4-aminopiperidine-1-carbonyl)piperidin-4-yl]-5-cyclopropyl-1H-pyrazole-4-carbonyl}-[(S)-3-(2-trifluoromethylphenyl)]pyrrolidine hydrochloride]", "values": [{"measurement": "IC50", "value": "< 30", "unit": "nM"}]}
{"smiles": "NC1CCN(C(=O)N2CCC(n3ncc(C(=O)N4CC[C@@H](c5ccccc5C(F)(F)F)C4)c3C3CC3)CC2)C1", "note": "(stereo partly drawn) [Example 36, 1-{1-[1-(3-aminopyrrolidine-1-carbonyl)piperidin-4-yl]-5-cyclopropyl-1H-pyrazole-4-carbonyl}-[(S)-3-(2-trifluoromethylphenyl)]pyrrolidine hydrochloride]", "values": [{"measurement": "IC50", "value": "< 30", "unit": "nM"}]}
{"smiles": "O=C(NC1CCNCC1)N1CCC(n2ncc(C(=O)N3CC[C@@H](c4ccccc4C(F)(F)F)C3)c2C2CC2)CC1", "note": "[Example 37, 1-{5-cyclopropyl-1-[1-(piperidin-4-yl-carbamoyl)piperidin-4-yl]-1H-pyrazole-4-carbonyl}-[(S)-3-(2-trifluoromethylphenyl)]pyrrolidine hydrochloride]", "values": [{"measurement": "IC50", "value": "< 30", "unit": "nM"}]}
